The values that follow come from patent publication US20250208149A1, “WEE1 COMPOUND FOR TREATING UTERINE SEROUS CARCINOMA” (Recurium IP Holdings, LLC, priority 2022, published 2025).

Common to all, as to type: cell-based
For one test, the system named is SKOV3 cells. Description: ZN-c3 dose response, percent cell density (cell titer glow), PPP2R1A siRNA vs scrambled control. As to conditions: Homo sapiens, SK-OV-3, 72 h. As for the experimental part:
FIG. 9 depicts the percent cell density of SKOV3 (an ovarian cancer cell line) cells after treatment with a 10-point dose response of ZN-c3 for 72 hours, comparing cells transfected with siRNA to PPP2R1A against those transfected with a scrambled control siRNA. Percent cell density is calculated using cell titer glow analysis. PPP2R1A siRNA transfected cells have approximately 2.7-fold increase in sensitivity to ZN-c3 (TABLE 5).
The effect of PPP2R1A knockdown on influencing cancer cell susceptibility to ZN-c3 was evaluated. Various cancer cell lines were transfected with PPP2R1A siRNA or control scrambled siRNA and the cells were treated with a 10 point dose response of ZN-c3 for 72 hours. Percent cell density was calculated using cell titer glow analysis. The PPP2R1A siRNA targeted the following bases Chr.19: 52189802-52226425. SiRNA transfection was started 48 hours prior to treatment with ZN-c3. The ZN-c3 dose response evaluation included ZN-c3 dosages at […].
An ovarian cell line SKOV3 was treated with PPP2R1A siRNA or control siRNA and transfected cells were assessed for sensitivity to ZN-c3 by measurement of reduction in percent cell density (FIG. 9). PPP2R1A siRNA mediated knockdown of PPP2R1A was evaluated by comparison of PPP2R1A expression in conditions treated with siCTRL and siPPPR12A (FIG. 10).
(Cellular ATP, detected with luciferase, serves as a proxy for viable cell number.)

In the next test the test system is A427 cells. Described as above. As to conditions: Homo sapiens, A-427, 72 h. As for the experimental part:
FIG. 1 depicts the percent cell density of A427 (a first non-small cell lung cancer cell line) cells after treatment with a 10-point dose response of ZN-c3 for 72 hours, comparing cells transfected with siRNA to PPP2R1A against those transfected with a scrambled control siRNA. Percent cell density is calculated using cell titer glow analysis. PPP2R1A siRNA transfected cells have approximately 3.5-fold increase in sensitivity to ZN-c3 (TABLE 1).
(§1) The effect of PPP2R1A knockdown on influencing cancer cell susceptibility to ZN-c3 was evaluated. Various cancer cell lines were transfected with PPP2R1A siRNA or control scrambled siRNA and the cells were treated with a 10 point dose response of ZN-c3 for 72 hours. Percent cell density was calculated using cell titer glow analysis. The PPP2R1A siRNA targeted the following bases Chr.19: 52189802-52226425. SiRNA transfection was started 48 hours prior to treatment with ZN-c3. […]
A first non-small cell lung cancer cell line A427 was treated with PPP2R1A siRNA or control siRNA and transfected cells were assessed for sensitivity to ZN-c3 by measurement of reduction in percent cell density (FIG. 1). PPP2R1A siRNA mediated knockdown of PPP2R1A was evaluated by comparison of PPP2R1A expression in conditions treated with siCTRL and siPPPR12A (FIG. 2).

Test [1] has as its system OV17R ovarian cancer cells. Description: Percent inhibition of cell growth, ZN-c3, LB-100 or ZN-c3+LB-100 (cell titer glow). Conditions: OV17R (PPP2R1A S256F), 72 hours; ZN-c3 75 nM, LB-100 1 μM. As for the experimental part: FIG. 19 depicts the percent inhibition of cell growth in OV17R ovarian cancer cells after treatment with ZN-c3 alone, the PP2A catalytic inhibitor LB-100 alone, or the combination of ZN-c3+LB-100. OV17R has the PPP2R1A missense mutation S256F. Percent inhibition is calculated using cell titer glow analysis.
Following observations that both knockdown and knockout of PPP2R1A could sensitize cancer cells to Zn-C3, the effects of pharmacological inhibition of PPP2R1A with the catalytic inhibitor LB-100 were evaluated. Various cancer cell lines were treated with ZN-c3 alone, the PP2A catalytic inhibitor LB-100 alone, or the combination of ZN-c3+LB-100. As in Example 1 and Example 2, the treatment period was 72 hours and percent inhibition was calculated using cell titer glow analysis.
The ovarian cancer cell line OV17R was assessed for sensitivity to ZN-c3 alone, LB-100 alone, or the combination of ZN-c3+LB-100 (FIG. 19).

Another test concerns SW620 cells. The test can be described thus: ZN-c3 dose response, percent cell density (cell titer glow), PPP2R1A siRNA vs scrambled control. Conditions: Homo sapiens, SW-620, 72 h. As for the experimental part:
FIG. 7 depicts the percent cell density of SW620 (a colorectal cancer cell line) cells after treatment with a 10-point dose response of ZN-c3 for 72 hours, comparing cells transfected with siRNA to PPP2R1A against those transfected with a scrambled control siRNA. Percent cell density is calculated using cell titer glow analysis. PPP2R1A siRNA transfected cells have approximately 1.9-fold increase in sensitivity to ZN-c3 (TABLE 4).
as §1
A colorectal cancer cell line SW620 was treated with PPP2R1A siRNA or control siRNA and transfected cells were assessed for sensitivity to ZN-c3 by measurement of reduction in percent cell density (FIG. 7). PPP2R1A siRNA mediated knockdown of PPP2R1A was evaluated by comparison of PPP2R1A expression in conditions treated with siCTRL and siPPPR12A (FIG. 8).

A further test relates to Hs578T cells. The test is described as above. As to conditions: Homo sapiens, Hs-578T, 72 h. As for the experimental part:
FIG. 5 depicts the percent cell density of Hs578T (a breast cancer cell line) cells after treatment with a 10-point dose response of ZN-c3 for 72 hours, comparing cells transfected with siRNA to PPP2R1A against those transfected with a scrambled control siRNA. Percent cell density is calculated using cell titer glow analysis. PPP2R1A siRNA transfected cells have approximately 2.4-fold increase in sensitivity to ZN-c3 (TABLE 3).
as §1
A breast cancer cell line Hs578T was treated with PPP2R1A siRNA or control siRNA and transfected cells were assessed for sensitivity to ZN-c3 by measurement of reduction in percent cell density (FIG. 5). PPP2R1A siRNA mediated knockdown of PPP2R1A was evaluated by comparison of PPP2R1A expression in conditions treated with siCTRL and siPPPR12A (FIG. 6).

As a reminder, the EC50 is the concentration giving half of the maximal effect.

For `C=CCn1c(=O)c2cnc(Nc3ccc(N4CCN(C)CC4)cc3)nc2n1-c1ccc2c(n1)[C@@](O)(CC)CC2` [ZN-c3, (R)-2-allyl-1-(7-ethyl-7-hydroxy-6,7-dihydro-5H-cyclopenta[b]pyridin-2-yl)-6-((4-(4-methylpiperazin-1-yl)phenyl)amino)-1,2-dihydro-3H-pyrazolo[3,4-d]pyrimidin-3-one], the EC50 with SKOV3 cells (siCTRL) is 0.48 µM; in the test with SKOV3 cells (siPPP2R1A), 0.18 µM; in the test on A427 cells (siCTRL) it was 0.196 µM; with A427 cells (siPPP2R1A) it was 0.0554 µM; in the test with SW620 cells (siCTRL), 0.45 µM; with SW620 cells (siPPP2R1A) it was 0.236 µM. Moreover, the results for the EC50 in the test on Hs578T cells (siCTRL) and in the test with Hs578T cells (siPPP2R1A) were 0.17 µM and 0.0713 µM, respectively. Further, the “percent inhibition of cell growth” value in test [1] is given as “approximately 30%”.
